Columns and labels:
[1] = Viscosity of dye solutions; format: physicochemical
Protocol: (§1) Density and viscosity can be changed by the addition of diglycerol or a gadolinium complex or a combination of both. For sinking of the dye solution to the bottom of the eye, density is more important than viscosity; the latter reduces, however, possible mixing for solutions which sink slowly. The density of dye solutions can be increased from 1.003 grams per milliliter (at 25° C.) to 1.028, when 10 volume % of a 0.5 M solution of gadopentetate is added to a final concentration of gadopentetate of 0.05 M, and to 1.048 when 20 volume % of a 0.5 M solution of gadopentetate is added to a final concentration of 0.10 M. The resulting viscosities are 1.125 mPa·s and 1.258 mPa·s, respectively. For a 5% addition of named gadopentetate solution, a density of 1.016 gram per milliliter and a viscosity of 1.117 mPa·s is obtained.

[2] = Density of dye solutions; format: physicochemical
Protocol: as §1

[3] = Osmotic pressure contribution of density-increasing agent; format: physicochemical; conditions: in words
[4] = system: retina; assay: Staining of porcine retina with dye preparations, contrast quantified from photographs; conditions: in words; compared with prior art agents like PEG
Excerpt: The eyes were kept on ice until used.
The upper part of the eye, including the cornea, iris, and lens, was removed with an orbital section. The vitreous body was removed to get access to the retina. The retina was rinsed three times with phosphate-buffered saline (PBS). Dye solutions were applied to the retina for 30 seconds, and the retina was then washed three times with PBS.
As an example of the visual impression of the stained retina, photos were taken. For photographic recording of the result of the staining, the staining was limited by applying a glass tube of a diameter of 10 mm. Care was taken that no dye could reach the cellular layer of the retina. […]
As an example of quantification, the pictures in FIGS. 1A-J were quantified by measuring the optical densities (expressed as grey values on a scale from 0 (black) to 255 (white)) of a rectangular area within the stained portion of the retina and a rectangular area outside the stained portion as background (ensuring that no blood vessels where present in the rectangular areas), and calculating the ratio of the grey values of the background to that of the stain. […] Toxicity was measured in ARPE cells. […] Toxicity is expressed as percent reduction of cell viability in comparison to a control incubated with PBS instead of the dye solution.

[5] = 10 volume % of 0.5 M solution added, final concentration 0.05 M
[6] = 20 volume % of 0.5 M solution added, final concentration 0.10 M

SMILES	viscosity ([1]; 5% addition of 0.5 M solution) [mPa·s]	viscosity [1, 5] [mPa·s]	viscosity [1, 6] [mPa·s]	density ([2]; 5% addition of 0.5 M solution) [gram per milliliter]	density [2, 5] [grams per milliliter]	density [2, 6] [grams per milliliter]	osmotic pressure / osmotic activity [3]	osmotic pressure / osmotic activity ([3]; listed as DG)	effect of density agent on staining efficiency [4]	viscosity ([1]; addition of 5 weight percent) [mPa·s]	density ([2]; addition of 5 weight percent) [grams per milliliter]
O=C([O-])CN(CCN(CC(=O)[O-])CC(=O)O)CCN(CC(=O)[O-])CC(=O)O.[Gd+3] [gadopentetate]	1.117	1.125	1.258	1.016	1.028	1.048					
OCC(O)COCC(O)COCC(O)CO (stereo not drawn) [triglycerol]							without increasing osmotic pressure substantially				
OCC(O)COCC(O)CO (stereo not drawn) [diglycerol]							without increasing osmotic pressure substantially	not even osmotically active	does not decrease staining efficiency	1.191	1.020

Reference: patent US20250018066A1, “Ophthalmic dye composition” (Vitreq B.V., priority 2016, published 2025)
